In brackets after ≈: the same amount, converted by molar mass.
Columns and labels:
Hepatitis B virus = assay: Antiviral activity against HBV infected in human HepG2.2.15 cells assessed as reduction in HBV DNA replication measured after 5 days by qPCR analysis; assay type: functional, organism-based; settings: HepG2.2.15, 120 h
[1] = Cytotoxicity against human HepDE19 cells assessed as reduction in cell viability measured after 5 days by CCK-8 method; assay type: functional; settings: HepDE19, 120 h, time 5 day
[2] = Selectivity index, ratio of CC50 for human HepDE19 cells assessed as reduction in cell viability to EC50 for HBV infected in human HepG2.2.15 cells assessed as reduction in HBV DNA replication; assay type: toxicity, cell-based; settings: HBV-infected HepG2.2.15 cells (EC50)
[3] = Lyophilization solubility of the compound in phosphate buffer at pH 6.5 incubated for 1 hr under stirring condition and 2 hrs under shaking condition by HPLC-UV analysis; assay type: physicochemical
[4] = Metabolic stability in mouse liver microsomes assessed as clearance at 1 uM preincubated for 10 mins and measured upto 30 mins in presence of NADPH generating system by LC-MS/MS analysis; assay type: ADME, Microsome; settings: time < 40 min
[5] = Metabolic stability in human liver microsomes assessed as clearance at 1 uM preincubated for 10 mins and measured upto 30 mins in presence of NADPH generating system by LC-MS/MS analysis; assay type: ADME, Microsome; settings: time < 40 min

Row | Structure (SMILES) | EC50 (Hepatitis B virus) | solubility at 3 h [3] | CLhep predicted at 1 µM [4] | CLhep predicted at 1 µM [5] | CC50 [1] | selectivity ratio [2]
1 | CCCc1cccc(NC(=O)N2CCn3ncc(-c4ccc(F)cc4)c3C2)c1 | 2.71 µM | 4.4 µg/mL (≈ 11.6 µM) | – | – | 13 µM | 5
2 | O=C(Nc1ccccc1Cl)N1CCn2ncc(-c3ccc(F)cc3)c2C1 | > 10 µM | – | – | – | > 100 µM | –
3 | O=C(Nc1cc(F)c(F)c(F)c1)N1CCn2ncc(-c3ccc(F)cc3)c2C1 | 0.387 µM | – | 3.78 L/h/kg | 0.96 L/h/kg | 31 µM | 80
4 | O=C(Nc1cccnn1)N1CCn2ncc(-c3ccc(F)cc3)c2C1 | > 10 µM | 2 µg/mL (≈ 5.91 µM) | 2.04 L/h/kg | 0.42 L/h/kg | > 100 µM | –
5 | C[C@@H]1Cn2ncc(-c3ccc(F)cc3)c2CN1C(=O)Nc1ccc(F)c(Cl)c1 | 0.111 µM | < 1 µg/mL | – | – | 26 µM | 234
6 | O=C(Nc1cccc(F)c1)N1CCn2ncc(-c3ccc(F)cc3)c2C1 | 0.414 µM | – | – | – | 32 µM | 76
7 | Cc1cc(NC(=O)N2CCn3ncc(-c4ccc(F)cc4)c3C2)ccc1F | 0.032 µM | – | 4.08 L/h/kg | 0.96 L/h/kg | 26 µM | 830
8 | C[C@H]1Cn2ncc(-c3ccc(F)cc3)c2CN1C(=O)Nc1ccc(F)c(Cl)c1 | 0.012 µM | < 1 µg/mL | – | – | 26 µM | 2170
9 | C[C@H]1CN(C(=O)Nc2ccc(F)c(Cl)c2)Cc2c(-c3ccc(F)cc3)cnn21 | 0.133 µM | – | – | – | 28 µM | 210
10 | O=C(Nc1ccccn1)N1CCn2ncc(-c3ccc(F)cc3)c2C1 | > 10 µM | 2 µg/mL (≈ 5.93 µM) | 4.8 L/h/kg | 1.02 L/h/kg | > 100 µM | –
11 | O=C(Nc1ccc(F)c(F)c1)N1CCn2ncc(-c3ccc(F)cc3)c2C1 | 0.155 µM | – | 3.9 L/h/kg | 0.96 L/h/kg | 34 µM | 222
12 | Cc1cccc(NC(=O)N2CCn3ncc(-c4ccc(F)cc4)c3C2)c1 | 0.131 µM | – | – | – | 88 µM | 672
13 | O=C(Nc1ccc(Cl)cc1)N1CCn2ncc(-c3ccc(F)cc3)c2C1 | 0.366 µM | – | – | – | 29 µM | 79
14 | CN(C(=O)N1CCn2ncc(-c3ccc(F)cc3)c2C1)c1ccccc1 | 2.19 µM | – | – | – | 93 µM | 42
15 | C[C@@H]1CN(C(=O)Nc2ccc(F)c(Cl)c2)Cc2c(-c3ccc(F)cc3)cnn21 | 0.037 µM | – | – | – | 97 µM | 2620
16 | CCc1cccc(NC(=O)N2CCn3ncc(-c4ccc(F)cc4)c3C2)c1 | 0.248 µM | – | – | – | 55 µM | 220

The remaining compounds from weak to strong by EC50 (Hepatitis B virus), led by results:

Row | EC50 (Hepatitis B virus) | solubility at 3 h [3] | CLhep predicted at 1 µM [4] | CLhep predicted at 1 µM [5] | Structure (SMILES) | CC50 [1] | selectivity ratio [2]
17 | 3.76 µM | – | – | – | O=C(c1ccccc1)N1CCn2ncc(-c3ccc(F)cc3)c2C1 | – | –
18 | 3.14 µM | – | – | – | O=C(Cc1ccccc1)N1CCn2ncc(-c3ccc(F)cc3)c2C1 | > 100 µM | > 32
19 | 1.85 µM | – | – | – | O=C(NC1CCCC1)N1CCn2ncc(-c3ccc(F)cc3)c2C1 | > 100 µM | > 54
20 | 1.85 µM | < 1 µg/mL | – | – | CC1c2c(-c3ccc(F)cc3)cnn2CCN1C(=O)Nc1ccccc1 (stereo not drawn) | 45 µM | 24
21 | 1.44 µM | – | – | – | O=C(NCc1ccccc1)N1CCn2ncc(-c3ccc(F)cc3)c2C1 | 91 µM | 63
22 | 1.2 µM | – | – | – | Cc1ccc(NC(=O)N2CCn3ncc(-c4ccc(F)cc4)c3C2)cc1 | 34 µM | 28
23 | 0.939 µM | – | – | – | O=C(Nc1ccccc1F)N1CCn2ncc(-c3ccc(F)cc3)c2C1 | 12 µM | 13
24 | 0.219 µM | – | – | – | O=C(Nc1cc(F)cc(F)c1)N1CCn2ncc(-c3ccc(F)cc3)c2C1 | 11 µM | 49

Source: ChEMBL document CHEMBL5370611, “Discovery of 4,5,6,7-Tetrahydropyrazolo[1.5-a]pyrizine Derivatives as Core Protein Allosteric Modulators (CpAMs) for the Inhibition of Hepatitis B Virus” (J Med Chem, 2023)
